Reference: paper PMC2263054, “Functional evolution of the vitamin D and pregnane X receptors” (BMC Evolutionary Biology, 2007)
Read-outs that look alike come from different tables or passages of the source.

Experiments:
β-actin = experiment: zebrafish in vivo liver transcription, semi-quantitative RT-PCR: β-actin
Procedure: (§1) Adult zebrafish were purchased from a commercial fish supplier and acclimatized for at least two-weeks in 20 L tanks with flow-through freshwater at 22°C. A single dose of 15 mg/kg of 5α-cyprinol, 5β-cyprinol 27-sulfate, 5α-scymnol or 5β-scymnol-27 sulfate, dissolved in saline, was injected intraperitoneally. A control group was injected with saline. After 48 hr, the animals were decapitated and livers of three fish (n = 5 each group) were removed, pooled and weighed, totalizing 15 fish per group. Fish were not fed throughout the experimental period. […].
(§2) To study the transcription of CYP3C1, ABCB5, PXR, GAPDH and β-actin genes in zebrafish, initial fragments of these genes were identified (Genbank: AW202769, Genbank: BQ284593, Genbank: AAM22215, Genbank: BC083506, Genbank: AF057040, respectively). The PCR primers for CYP3C1 were designed using MacVector Software and primers for MDR1 were designed using Primer 3 Software (Whitehead Institute for Biomedical Research; [75]). Primer pairs for amplifying CYP3C1 fragment were 5'-[…]-3' (sense) and 5'-[…]-3' (antisense) and for amplifying ABCB5 were 5'-[…]-3' (sense) and 5'-[…]-3' (antisense). The PCR primers for PXR were 5'-[…]-3' (sense) and 5'-[…]-3' (antisense), for amplifying GAPDH were 5'-[…]-3' (sense) and 5' […] 3' (antisense) and for β-actin were 5'-[…]-3' (sense) and 5'-[…]-3' (antisense). RNA was isolated using Trizol (Invitrogen) according to manufacturer's instructions. Purity and concentration of RNA of each sample were verified at 260 nm. The RNA integrity was checked by non-denaturing gel electrophoresis using 1 μg of total RNA in each sample.
(§3) Two micrograms of total RNA were reversed transcribed using Ominiscript RT Kit (Qiagen, Valencia, CA, USA). cDNA concentration was checked at 260 nm, and the amount adjusted to 1 μg to perform semi-quantitative RT-PCR. The expected size of the PXR, Cyp3C1, abcb5, GAPDH and β-actin fragments were 577, 477, 218, 234 and 550 bp, respectively. Biotools DNA polymerase (Biotools B&M Labs, S.A., Madrid, Spain) kit was used for the PCR reaction using a thermocycler Personal Mastercycler (Eppendörf) with the following PCR program: 5 cycles of 94°C for 5 s, 72°C for 35 s; 5 cycles of 94°C for 5 s, 70°C for 10 s, 72°C for 35 s; and 23, 24, 35, 15 and 24 cycles (PXR, Cyp3C1, abcb5, GAPDH and β-actin, respectively) of 94°C for 5 s, 61, 54, 48, 49 and 61°C for 10 s (PXR, Cyp3C1, abcb5, GAPDH and β-actin, respectively), and 72°C for 35 s. The PXR, CYP3C1, ABCB5 and GAPDH transcript levels were quantified using Gel-Quant™ (Multiplexed Biotechologies) and β-actin was used to normalize the data. The Shapiro-Wilk W test was used to evaluate normality. When data were parametric the analysis was performed using Student t test; otherwise Mann Whitney U test was applied. […]

zebrafish PXR = conditions: cited from earlier work
CYP3C1 = experiment: zebrafish in vivo liver transcription, semi-quantitative RT-PCR: CYP3C1
Procedure: as §1, §2, §3

Xenopus laevis VDR = target: T1, Xenopus laevis VDR (Xenopus laevis, UniProt O13124); experiment: luciferase reporter transactivation assay in HepG2-NTCP cells, GAL4/xlVDR LBD chimera with tk-UAS-Luc; assay type: cell-based; conditions: HepG2-NTCP cells, luciferase reporter; unit not given; also cells saying No effect
T1 sequence (O13124 90-422): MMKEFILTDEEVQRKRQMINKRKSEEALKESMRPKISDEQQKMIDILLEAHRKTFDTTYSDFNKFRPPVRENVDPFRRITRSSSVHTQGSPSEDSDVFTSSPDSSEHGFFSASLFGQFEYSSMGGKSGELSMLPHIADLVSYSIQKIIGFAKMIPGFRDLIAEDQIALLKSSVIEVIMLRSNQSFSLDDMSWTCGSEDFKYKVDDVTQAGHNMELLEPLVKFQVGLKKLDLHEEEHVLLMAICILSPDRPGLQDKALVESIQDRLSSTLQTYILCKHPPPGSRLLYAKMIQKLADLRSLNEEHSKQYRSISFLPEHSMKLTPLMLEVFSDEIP

Zebrafish VDR = target: T2, Zebrafish VDR (Danio rerio, UniProt Q9PTN2); experiment: luciferase reporter transactivation assay in HepG2-NTCP cells, GAL4/zfVDR LBD chimera with tk-UAS-Luc; assay type: cell-based; conditions: HepG2-NTCP cells, luciferase reporter; unit not given; also cells saying No effect
T2 sequence (Q9PTN2 121-453): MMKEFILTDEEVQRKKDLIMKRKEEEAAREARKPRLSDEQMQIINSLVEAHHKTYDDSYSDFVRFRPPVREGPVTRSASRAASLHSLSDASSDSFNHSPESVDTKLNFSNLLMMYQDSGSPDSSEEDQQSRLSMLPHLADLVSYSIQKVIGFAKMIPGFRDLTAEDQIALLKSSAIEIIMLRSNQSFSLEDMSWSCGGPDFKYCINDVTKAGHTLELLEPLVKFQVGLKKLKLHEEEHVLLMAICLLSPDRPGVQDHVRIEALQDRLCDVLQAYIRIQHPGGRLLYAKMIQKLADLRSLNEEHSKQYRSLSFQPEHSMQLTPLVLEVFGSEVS

[1] = zebrafish, 15 mg/kg intraperitoneally, single dose, 48 hr

SMILES | liver transcription of β-actin (β-actin; ip, 15 mg/kg, 48 h) [arbitrary units] | activity at recombinant zebrafish PXR (zebrafish PXR) | liver transcription of CYP3C1 (CYP3C1; ip, 15 mg/kg, 48 h) | Xenopus VDR EC50 ± SD (Xenopus laevis VDR) | Zebrafish VDR EC50 ± SD (Zebrafish VDR) | liver transcription of β-actin (β-actin; [1]) [arbitrary units] | activity at recombinant zebrafish PXR (zebrafish PXR; ref [29],[53]) | liver transcription of CYP3C1 (CYP3C1; [1])
C[C@H](CCCC(CO)CO)[C@H]1CC[C@H]2[C@@H]3[C@H](O)C[C@H]4C[C@H](O)CC[C@]4(C)[C@H]3C[C@H](O)[C@]12C [5α-Cyprinol, 5α-cholestan-3α,7α,12α,26,27-pentol] | 44.7 ± 19.6 | both inactive at recombinant zebrafish PXR | 1.33 ± 0.33 arbitrary units normalized to β-actin | No effect | No effect | – | – | –
C[C@H](CCCC(CO)COS(=O)(=O)O)[C@H]1CC[C@H]2[C@@H]3[C@H](O)C[C@H]4C[C@H](O)CC[C@]4(C)[C@H]3C[C@H](O)[C@]12C (stereo partly drawn) [5α-Cyprinol 27-sulfate] | – | – | – | No effect | No effect | 38.2 ± 20.7 | efficacious activator of recombinant zebrafish PXR | 1.71 ± 0.50 arbitrary units normalized to β-actin
